For assay [1], the system named is MRSA-OS. As to the kind of experiment: microbe, parasite or virus in culture. The note with it: 24 h. It is filed as cell-based, Staphylococcus aureus. An excerpt: (§1) A range of Gram-positive and Gram-negative laboratory- and clinical-strain bacteria were used for the experiments. These included laboratory-strain methicillin-sensitive S. aureus (MSSA; including SH1000 and ATCC SA29213), laboratory-strain MRSA (ATCC MRSA43300), clinical-strain MRSA (MRSA-OS; an IK isolate), laboratory-strain methicillin-sensitive Staphylococcus epidermidis (MSSE; ATCC SE12228), laboratory invasive-strain P. aeruginosa (PAO1-L), and clinical cytotoxic-strain P. aeruginosa (PA-OS; an IK isolate).
(§2) In vitro antimicrobial efficacy of the antibiotics and designed HDPs was determined using an established MIC assay with broth microdilution method approved by the Clinical and Laboratory Standards Institute (CLSI)[64]. Briefly, the microorganisms were cultured on Tryptone Soya Agar (TSA) and incubated overnight for 18–21 h at 37 °C. Bacterial inoculums were subsequently prepared using the direct colony suspension method. Three to five bacterial colonies were obtained from the agar plate and inoculated into an Eppendorf tube containing 1 ml of cation-adjusted Muller-Hinton broth (caMHB), consisting of 20–25 mg/L calcium ions (Ca^2+) and 10–12.5 mg/L magnesium ions (Mg^2+). The bacterial suspension was adjusted to achieve a turbidity equivalent to 0.1 OD600 or 0.5 MacFarland, containing ~ 1.5 × 10^8 colony-forming unit (CFU)/ml, which was then further diluted in 1:150 in caMHB to reach a final bacterial concentration of ~ 1 × 10^6 colony forming units (CFU)/ml. Each treatment (peptide or antibiotic) was prepared in 1:2 serial dilution in 96-well polypropylene microplates (with a final treatment volume of 50 μl per well), followed by the addition of 50 μl of 1 × 10^6 CFU/ml bacteria into each well (with a final bacterial concentration of 5 × 10^5 CFU/ml).

The subject of assay [2] is S. aureus SH1000. As to the kind of experiment: microbe, parasite or virus in culture. It is filed as cell-based, Staphylococcus aureus.
Source text: as §1, §2

Assay [3] relates to P. aeruginosa PAO1-L. As to the kind of experiment: microbe, parasite or virus in culture. It is filed as cell-based.
Source text: as §1, §2

Assay [4] concerns human corneal epithelial cells (HCE-2). As to the kind of experiment: cells. It is filed as cell-based. The note with it: 3 h. Here is the method: Cell viability and cytotoxicity of antibiotics and peptides were determined against human corneal epithelial cells (HCE-2, CRL-11135, ATCC, Manassas, Virginia, USA) using cell-counting-kit-8 (CCK-8) assay (Sigma Aldrich, Merck Life Science UK Limited, Dorset, UK) and lactate dehydrogenase (LDH) assay (ThermoFisher Scientific, UK), respectively, as per manufacturer’s guidelines. HCE-2 cells were cultured and seeded into a 96-well plate at a density of 7.5 × 10^3 cells/well and allowed to attach overnight and grew to 80–90% confluency in keratinocyte serum free medium (KSFM) supplemented with human recombinant epidermal growth factor, bovine pituitary extract, hydrocortisone, and insulin. Once the confluency reached 80–90%, the cells were incubated with treatment for 3 h before OD450 measurement was taken using BMG Clariostar microplate reader (BMG Labtech Ltd., Aylesbury, UK). Appropriate controls were used, including 0.1% Triton X-100 as positive control and KSFM as negative control. Cell viability was calculated using the following formula: [([…]) × 100; I = intensity] and cytotoxicity was calculated using the following formula: [((Itreatment – INC)/(IPC – INC)) × 100].

In assay [5] the test system is P. aeruginosa PA-OS. Description: microbe, parasite or virus in culture. It is filed as cell-based. Particulars: PA-OS, 24 h.
Source text: as §1, §2

Where [6] appears, read: 0 mM NaCl, caMHB, read-out: MIC.
The mark [7] stands for this setting: 0 mM NaCl, caMHB, 24 h, read-out: MIC.

The structures appear in SMILES notation. In brackets after ≈: the same amount, converted by molar mass. Read-outs that look alike come from different tables or passages of the source. Peptide text beside a SMILES is read from it.

For the molecule `NCCCC[C@H](NC(=O)[C@H](CS)NC(=O)[C@H](CS)NC(=O)[C@@H](N)CCCCN)C(=O)N[C@@H](CCCCN)C(=O)N1CCC[C@H]1C(=O)O` [BD2-6, KCCKKP] (H-KCCKKP-OH; N-terminus and C-terminus assumed), the MIC was more than 283.3 µM in assay [1] (setting [6]); more than 200 µg/mL in assay [1] (-OS); more than 283.3 µM in assay [2] (setting [7]); more than 200 µg/mL in assay [2] (SH1000, 24 h); more than 283.3 µM in assay [3] (setting [7]); more than 200 µg/mL in assay [3] (PAO1, 24 h).
Turning to `N=C(N)NCCC[C@H](NC(=O)CNC(=O)[C@@H](N)CCCNC(=N)N)C(=O)N[C@@H](CCCCN)C(=O)N[C@@H](CS)C(=O)N[C@@H](CS)C(=O)N[C@@H](CCCNC(=N)N)C(=O)N[C@@H](CCCNC(=N)N)C(=O)N[C@@H](CCCCN)C(=O)N[C@@H](CCCCN)C(=O)O` [BD3-10, RGRKCCRRKK] (H-RGRKCCRRKK-OH; N-terminus and C-terminus assumed), the MIC was more than 154.9 µM in assay [1] (setting [6]); more than 200 µg/mL in assay [1] (-OS); more than 154.9 µM in assay [2] (setting [7]); more than 200 µg/mL in assay [2] (SH1000, 24 h); more than 154.9 µM in assay [3] (setting [7]); more than 200 µg/mL in assay [3] (PAO1, 24 h).
On to `CC[C@H](C)[C@H](NC(=O)[C@H](CCCNC(=N)N)NC(=O)[C@H](CCC(N)=O)NC(=O)[C@@H](NC(=O)[C@@H](NC(=O)[C@H](CCCNC(=N)N)NC(=O)[C@@H](N)CCCCN)[C@@H](C)CC)C(C)C)C(=O)N[C@@H](CCCCN)C(=O)N[C@@H](CC(=O)O)C(=O)N[C@@H](Cc1ccccc1)C(=O)N[C@@H](CC(C)C)C(=O)N[C@@H](CCCNC(=N)N)C(=O)O` [Ca12, KRIVQRIKDF LR] (H-KRIVQRIKDFLR-OH; N-terminus and C-terminus assumed), for which the MIC in assay [1] (-OS) is more than 200 µg/mL; in assay [2] (SH1000, 24 h), more than 200 µg/mL; in assay [3] (PAO1, 24 h) it was 200 µg/mL.
Regarding `CC[C@H](C)[C@H](NC(=O)[C@H](CCCNC(=N)N)NC(=O)[C@H](CCC(N)=O)NC(=O)[C@@H](NC(=O)[C@@H](NC(=O)[C@H](CCCNC(=N)N)NC(=O)[C@@H](N)CCCCN)[C@@H](C)CC)C(C)C)C(=O)N[C@@H](CCCCN)C(=O)N[C@@H](CC(=O)O)C(=O)N[C@@H](Cc1ccccc1)C(=O)N[C@@H](CC(C)C)C(=O)N[C@@H](CCCNC(=N)N)C(=O)N[C@@H](CCCNC(=N)N)C(=O)NCC(=O)N[C@@H](CCCCN)C(=O)N[C@@H](C)C(=O)N[C@@H](CCCCN)C(=O)O` [CaD1, KRIVQRIKDF LRRGKAK] (H-KRIVQRIKDFLRRGKAK-OH; N-terminus and C-terminus assumed), the MIC in assay [1] (-OS) is more than 200 µg/mL; in assay [2] (SH1000, 24 h), more than 200 µg/mL; in assay [3] (PAO1, 24 h), more than 200 µg/mL.
For the molecule `CC[C@H](C)[C@H](NC(=O)[C@@H](N)CCCNC(=N)N)C(=O)N[C@@H](CCCCN)C(=O)N[C@@H](CC(=O)O)C(=O)N[C@@H](Cc1ccccc1)C(=O)N[C@@H](CC(C)C)C(=O)N[C@@H](CCCNC(=N)N)C(=O)N[C@@H](CC(N)=O)C(=O)NCC(=O)N[C@@H](CCCNC(=N)N)C(=O)N[C@@H](CCCCN)C(=O)N[C@@H](CS)C(=O)N[C@@H](CS)C(=O)N[C@@H](CCCNC(=N)N)C(=O)N[C@@H](CCCNC(=N)N)C(=O)N[C@@H](CCCCN)C(=O)N[C@@H](CCCCN)C(=O)O` [CaD3, RIKDFLRNGR KCCRRKK] (H-RIKDFLRNGRKCCRRKK-OH; N-terminus and C-terminus assumed), the MIC in assay [1] (setting [6]) was more than 91.8 µM; in assay [1] (-OS), more than 200 µg/mL; in assay [2] (setting [7]), more than 91.8 µM; in assay [2] (SH1000, 24 h), more than 200 µg/mL; in assay [3] (setting [7]), more than 91.8 µM; in assay [3] (PAO1, 24 h), more than 200 µg/mL.
As to `CC[C@H](C)[C@H](NC(=O)[C@H](CCCNC(=N)N)NC(=O)[C@H](CCC(N)=O)NC(=O)[C@@H](NC(=O)[C@@H](NC(=O)[C@H](CCCNC(=N)N)NC(=O)[C@@H](N)CCCCN)[C@@H](C)CC)C(C)C)C(=O)N[C@@H](CCCCN)C(=O)N[C@@H](CC(=O)O)C(=O)N[C@@H](Cc1ccccc1)C(=O)N[C@@H](CC(C)C)C(=O)N[C@@H](CCCNC(=N)N)C(=O)N[C@@H](CCCCN)C(=O)N[C@@H](C)C(=O)N[C@@H](CS)C(=O)N[C@@H](CCCCN)C(=O)N[C@@H](CCCCN)C(=O)N1CCC[C@H]1C(=O)O` [CaD21, KRIVQRIKDF LRKACKKP] (H-KRIVQRIKDFLRKACKKP-OH; N-terminus and C-terminus assumed), the MIC in assay [1] (-OS) was more than 200 µg/mL; in assay [2] (SH1000, 24 h), 200 µg/mL; in assay [5], 200 µg/mL (≈ 89.8 µM). The “IC50 (concentration causing 50% inhibition of cell viability)” value in assay [4] was more than 200 µg/mL.
Regarding `C[C@H](NC(=O)[C@H](CCCCN)NC(=O)CNC(=O)[C@@H](N)CCCNC(=N)N)C(=O)N[C@@H](CCCCN)C(=O)N[C@@H](CS)C(=O)N[C@@H](CS)C(=O)N[C@@H](CCCCN)C(=O)NCC(=O)N[C@H](C(=O)N[C@@H](CCCCN)C(=O)N[C@@H](CS)C(=O)N[C@@H](CS)C(=O)N[C@@H](CCCCN)C(=O)N[C@@H](CCCCN)C(=O)N1CCC[C@H]1C(=O)O)[C@@H](C)O` [DD12, RGKAKCCKGT KCCKKP] (H-RGKAKCCKGTKCCKKP-OH; N-terminus and C-terminus assumed), the MIC is more than 115 µM in assay [1] (setting [6]); more than 200 µg/mL in assay [1] (-OS); more than 115 µM in assay [2] (setting [7]); more than 200 µg/mL in assay [2] (SH1000, 24 h); more than 115 µM in assay [3] (setting [7]); more than 200 µg/mL in assay [3] (PAO1, 24 h).
As for `C[C@H](NC(=O)[C@H](CCCCN)NC(=O)CNC(=O)[C@@H](N)CCCNC(=N)N)C(=O)N[C@@H](CCCCN)C(=O)N[C@@H](CS)C(=O)N[C@@H](CS)C(=O)N[C@@H](CCCCN)C(=O)N[C@@H](CCCNC(=N)N)C(=O)NCC(=O)N[C@@H](CCCNC(=N)N)C(=O)N[C@@H](CCCCN)C(=O)N[C@@H](CS)C(=O)N[C@@H](CS)C(=O)N[C@@H](CCCNC(=N)N)C(=O)N[C@@H](CCCNC(=N)N)C(=O)N[C@@H](CCCCN)C(=O)N[C@@H](CCCCN)C(=O)O` [DD13, RGKAKCCKRG RKCCRRKK] (H-RGKAKCCKRGRKCCRRKK-OH; N-terminus and C-terminus assumed), the MIC in assay [1] (setting [6]) was more than 92.3 µM; in assay [1] (-OS) it was more than 200 µg/mL; in assay [2] (setting [7]) it was more than 92.3 µM; in assay [2] (SH1000, 24 h), more than 200 µg/mL; in assay [3] (setting [7]), more than 92.3 µM; in assay [3] (PAO1, 24 h), more than 200 µg/mL.
As for `N=C(N)NCCC[C@H](NC(=O)CNC(=O)[C@@H](N)CCCNC(=N)N)C(=O)N[C@@H](CCCCN)C(=O)N[C@@H](CS)C(=O)N[C@@H](CS)C(=O)N[C@@H](CCCNC(=N)N)C(=O)N[C@@H](CCCNC(=N)N)C(=O)N[C@@H](CCCCN)C(=O)N[C@@H](CCCCN)C(=O)N[C@@H](CCCCN)C(=O)N[C@@H](CS)C(=O)N[C@@H](CS)C(=O)N[C@@H](CCCCN)C(=O)N[C@@H](CCCCN)C(=O)N1CCC[C@H]1C(=O)O` [DD32, RGRKCCRRKK KCCKKP] (H-RGRKCCRRKKKCCKKP-OH; N-terminus and C-terminus assumed), the MIC is more than 101 µM in assay [1] (setting [6]); more than 101 µM in assay [2] (setting [7]); more than 200 µg/mL in assay [2] (SH1000, 24 h); more than 101 µM in assay [3] (setting [7]); more than 200 µg/mL in assay [3] (PAO1, 24 h).

The values are drawn from PMC8443647, “Hybrid derivative of cathelicidin and human beta defensin-2 against Gram-positive bacteria: A novel approach for the treatment of bacterial keratitis” (Scientific Reports, 2021).
